The values that follow come from patent US20240216412A1, “OXIDIZED NICOTINAMIDE ADENINE DINUCLEOTIDE (NAD+) PRECURSOR TREATMENT FOR HEART FAILURE ALLEVIATION INDEPENDENT OF MITOCHONDRIAL PROTEIN DEACETYLATION” (University of Washington, priority 2022, published 2024).

Experiment [1] relates to chronic pressure overload (TAC) induced heart failure in WT and Sirt3Ko mice. As to the kind of experiment: Survival, organ weight and histology (HW/TL, lung edema, fibrosis) after TAC. The experiment is classed as in vivo, mouse. The protocol: Mice randomly received either NR (500 mg/kg body weight) (Canto et al., 2012) or vehicle saline daily for eight-weeks. Representative M-mode images for the echocardiography can be found in FIGS. 1C and 1D. Four weeks of chronic pressure overload caused similar declines in left ventricular fractional shortening (FS %) in mice randomized to NR or vehicle groups for either WT or Sirt3Ko (FIGS. 1E and 1F). […] Similar to NR treated WT, cardiac hypertrophy, left ventricular cavity dilation, and lung edema were less severe in Sirt3Ko TAO mice that received NR treatment (FIGS. 1B-1J). All echocardiography parameters can be found in Table 1 below.
Transverse aortic constriction. Male mice (3-4 months old) underwent transverse aortic constriction (TAC) or sham surgery. Briefly, mice were anesthetized with an IP injection of 130 mg/kg ketamine and 8.8 mg/kg xylazine in saline. Mice were intubated with 20 G cannula and ventilated 140 breaths per minute by small animal TOPO ventilator (Kent Scientific). The aortic arch was exposed via a left thoracotomy and by carefully separating the thymus. A constriction of the transverse aorta was generated by tying a 6-0 Ethilon ligature against a 27-gauge blunt needle around the aorta between the brachiocephalic and left common carotid arteries. Promptly the needle was removed and the chest and skin were closed by 5-0 polypropylene suture. The animal was removed from ventilation and kept on a heating blanket during recovery from anesthesia. SR buprenorphine (0.05 mg/kg) was administered subcutaneously for analgesia. Sham operated mice underwent all the same procedures as TAC mice excluding the constriction of the aorta. All mice were monitored every 12 h during the first 72 h post-surgery, followed by daily visits over the next 4 weeks.
Organ weight and histological assessment. Hearts from mice were harvested, rinsed briefly in 1×PBS, blotted dry, and weighed. Lungs from the same mice were harvested, weighed, then dried at 56 C. After 72 hours the lungs were weighed again. Heart weight (HW) and Lung weight (LW) was normalized to tibia length (TL) to assess changes in hypertrophic growth and lung edema, respectively. For histology, hearts were perfusion fixed with 10% neutral buffered formalin. Longitudinal sections of hearts were stained with Masson's Trichrome for assessment of fibrosis by the University of Washington Histology and Imaging Core.

Experiment [2] deals with Complex I, Cytochrome C Oxidase, Citrate synthase. Briefly: Electron transport chain enzyme activities in heart homogenates. The experiment is classed as in vivo, mouse. The note with it: TAC hearts, Sirt3Ko and WT heart lysate. The protocol:
Enzyme Activities. Citrate synthase (CS), Complex I (CI) and Cytochrome C Oxidase (CIV), and Mrpp2 dehydrogenase activities were determined in heart tissue homogenates at 30° C. using a protocol adapted from previously published methods (Spinazzi et al., 2012). Briefly, for CS activity frozen cardiac tissue (25 mg) was homogenized at 4° C. in CelLytic™ MT Cell Lysis Reagent (C3228) and then incubated on ice for 30 minutes. The samples were then centrifuged at 10,000×g for 10 minutes at 4° C. and protein concentration determined. CS activity was analyzed in 100 mM Tris buffer containing 0.1% Triton X-100, pH 8.0 as previously described (Spinazzi et al., 2012). For CIV activity, 25 mg of cardiac tissue was homogenized at 4° C. in 50 mM potassium phosphate buffer containing 1 mM EDTA, and 0.1% Triton X-100 (pH 7.4; final concentration, 5 mg tissue/mL). The samples were incubated on ice for 30 minutes followed by centrifugation at 10,000×g for 10 minutes at 4° C. CIV activity was analyzed in 100 mM potassium phosphate buffer as previously described (Spinazzi et al., 2012). For Cl activity, 25 mg of cardiac tissue was homogenized at 4° C. in 50 mM potassium phosphate buffer containing 1 mM EDTA, and 0.1% Triton X-100 (pH 7.4; final concentration, 5 mg tissue/mL). The samples were incubated on ice for 30 minutes followed by centrifugation at 10,000×g for 10 minutes at 4° C. Cl activity was analyzed in 100 mM potassium phosphate buffer as previously described (Spinazzi et al., 2012). In parallel, a separate reactions containing the same quantity of reagents and sample but with the addition of 10 μl of 1 mM rotenone solution. The reactions were started by adding 6 μl of ubiquinone (10 mM), mix and follow the decrease of absorbance at 340 nm for 2 min. The dehydrogenase activity of Mrpp2 was measured as described (Falk et al., 2016) in the reverse direction for reduction of acetoacetyl-CoA (30 mM) to L-3-hydroxyacyl-CoA. The reaction was monitored as the decrease of absorbance at 340 nm.

Where [3] appears, read: Sirt3Ko TAC mice, similar to NR treated WT.

`NC(=O)c1ccc[n+]([C@@H]2O[C@H](CO)[C@@H](O)[C@H]2O)c1` [NR, Nicotinamide riboside chloride]: in experiment [1] (Sirt3Ko TAC mice), the “Fibrosis (Masson's trichrome)” value is on record as “decreased fibrosis”. Also, in experiment [1] (setting [3]), the Cardiac hypertrophy result is recorded as “less severe” and the Lung edema result is given as “less severe”. The “Mortality (Kaplan-Meier survival curve analysis)” value in experiment [1] (WT and Sirt3Ko TAC mice, NR vs vehicle for eight weeks) is given as “no significant difference in mortality”. For the same molecule, in experiment [2], the “Activity of citrate synthase” value was “no change”, the “Activity of complex I” value is recorded as “restored” and the “Activity of cytochrome c oxidase (COIV)” value is “restored”.
